Results on one molecule are retold here after article PMC9190012, “Heparin activation of protein Z-dependent protease inhibitor (ZPI) allosterically blocks protein Z activation through an extended heparin-binding site” (The Journal of Biological Chemistry, 2022).

Residue numbers refer to the chain shown, from its start. Like-named read-outs stand apart in the source and are kept apart here.

Test [1] deals with T1, helix C site mutant ZPI (K104A/R105A/K113A/K116A) (Homo sapiens, UniProt Q9UK55, K125A/K134A/K137A/R126A).
T1 construct: made in house; host or cells: Escherichia coli
T1 sequence (Q9UK55 22-444 K125A/R126A/K134A/K137A): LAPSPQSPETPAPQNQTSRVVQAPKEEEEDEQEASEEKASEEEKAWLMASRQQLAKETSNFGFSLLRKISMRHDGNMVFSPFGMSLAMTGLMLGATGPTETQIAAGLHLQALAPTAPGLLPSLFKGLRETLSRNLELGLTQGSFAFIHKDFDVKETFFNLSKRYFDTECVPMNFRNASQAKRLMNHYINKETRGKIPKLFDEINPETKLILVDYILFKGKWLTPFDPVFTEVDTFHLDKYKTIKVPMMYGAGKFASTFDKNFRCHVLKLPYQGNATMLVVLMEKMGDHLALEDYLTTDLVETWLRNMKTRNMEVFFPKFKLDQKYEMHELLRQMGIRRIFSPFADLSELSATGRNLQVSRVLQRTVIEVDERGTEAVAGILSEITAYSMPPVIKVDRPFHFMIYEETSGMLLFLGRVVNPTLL
Nature of the test: Direct heparin binding titrations monitored by intrinsic protein fluorescence quenching. Conditions: 1 μM helix C site mutant ZPI; quenching end point fixed at WT. As for the experimental part:
(§1) Fluorescence emission spectra of NBD-ZPI (50–100 nM) were measured in the absence or the presence of PZ and heparin in 20 mM Tris buffer (pH 7.4), 0.2 M NaCl, 0.1% PEG 8000, 1 mg/ml bovine serum albumin (BSA), and 2.5 mM CaCl2 with an SLM 8000 spectrofluorometer with excitation at 480 nm over the emission range of 500 to 600 nm. Intrinsic protein fluorescence of WT and mutant ZPIs (200 nM to 1 μM) was measured in the same buffer without BSA, with excitation at 280 nm over the emission range of 300 to 400 nm. Emission was monitored in 5-nm steps with 5 to 10 s of integrations per step. Spectra were obtained in triplicate and averaged. Buffer, buffer plus PZ, or buffer plus heparin background spectra were subtracted, and dilution corrections were made for added PZ or heparin (<10%). Direct equilibrium binding of heparin to ZPI was measured by titrations of unlabeled WT and variant ZPIs (0.2–1 μM) with heparin monitored by the quenching of intrinsic protein fluorescence accompanying heparin binding at excitation and emission wavelengths of 280 and 340 nm, respectively. Titrations were computer fit by the aforementioned quadratic binding equation with [H]o replacing [PZ]o and KD,H replacing KD,PZapp.

Another test addresses T2, WT ZPI (Homo sapiens, UniProt Q9UK55).
T2 construct: made in house; host or cells: Escherichia coli
T2 sequence (Q9UK55 22-444): T1 sequence (Q9UK55 22-444 K125A/R126A/K134A/K137A) with A104K, A105R, A113K, A116K
The description is as above. Here is the method: as §1

Test [2] has as its target T3, helix H site mutant ZPI (K260A/R263A/R305A/K308A/R310A) (Homo sapiens, UniProt Q9UK55, K281A/K329A/R284A/R326A/R331A).
T3 construct: made in house; host or cells: Escherichia coli
T3 sequence (Q9UK55 22-444 K281A/R284A/R326A/K329A/R331A): T1 sequence (Q9UK55 22-444 K125A/R126A/K134A/K137A) with A104K, A105R, A113K, A116K, K260A, R263A, R305A, K308A, R310A
Described as above. Conditions: 200 nM helix H site mutant ZPI. As for the experimental part: as §1

The next test addresses T4, NBD-ZPI–PZ interactions (Homo sapiens, UniProt Q9UK55, C190A/C285S/K260C).
T4 construct: made in house; host or cells: Escherichia coli
T4 sequence (Q9UK55 22-444 C190A/K260C/C285S): T1 sequence (Q9UK55 22-444 K125A/R126A/K134A/K137A) with A104K, A105R, A113K, A116K, C169A, K239C, C264S
Nature of the test: Titrations of NBD-ZPI with PZ in absence and presence of fixed levels of heparin. The format is binding. Conditions: read-out: ZPI–heparin KD,H (predicted). Here is the method: The effect of heparin on PZ binding to ZPI was measured by titrations of 50 nM NBD-ZPI with PZ in the absence and presence of different fixed levels of heparins of various lengths in the higher ionic strength buffer used for emission spectra. Titrations were monitored from the enhancement of NBD-ZPI fluorescence that signals PZ binding. These titrations were fit by the quadratic binding equation, ΔFobs/F0=ΔFmax/F0×[ZPI]0+[PZ]0+KD,PZapp−([ZPI]0+[PZ]0+KD,PZapp)^2−4×[ZPI]0×[PZ]0/2×[ZPI]0 where ΔFobs/Fo and ΔFmax/Fo are the observed and maximal fluorescence changes after addition of PZ expressed relative to the initial free NBD-ZPI fluorescence, respectively, and KD,PZapp = KD,PZ × (1 + [H]o/KD,H) is the apparent dissociation constant for the ZPI–PZ interaction in the absence or presence of heparin. The fitted parameters were KD,PZapp and ΔFmax/Fo.

A word on the Kd: it is the equilibrium constant for the complex coming apart. As for `CO[C@H]1O[C@H](COS(=O)(=O)O)[C@@H](O[C@@H]2O[C@@H](C(=O)O)[C@@H](O[C@H]3O[C@H](COS(=O)(=O)O)[C@@H](O[C@@H]4O[C@H](C(=O)O)[C@@H](O[C@H]5O[C@H](COS(=O)(=O)O)[C@@H](O)[C@H](O)[C@H]5NS(=O)(=O)O)[C@H](O)[C@H]4O)[C@H](OS(=O)(=O)O)[C@H]3NS(=O)(=O)O)[C@H](O)[C@H]2OS(=O)(=O)O)[C@H](O)[C@H]1NS(=O)(=O)O` [H5, fondaparinux], the Kd in test [1] is 1900 ± 200 µM; on WT ZPI (200 nM WT ZPI, 0.2 M NaCl buffer, pH 7.4, 25 °C), 123 ± 23 µM; in test [2] it was 142 ± 42 µM; on NBD-ZPI–PZ interactions (calculated from KD,PZapp at 211 μM heparin) it was 53 µM; at NBD-ZPI–PZ interactions (calculated from KD,PZapp at 423 μM heparin), 44 µM. Further, the “maximal quenching of protein fluorescence” value at WT ZPI (fit of titration by quadratic binding equation) is listed as −15 ± 1%. For the same molecule, on WT ZPI (near saturating levels of heparin (400 μM H5 or 4 μM H72)), the “quenching of the protein fluorescence emission spectrum” value is on record as 15 to 20%.
